Measured values: US4352885A, “Preparation of a novel NADP linked alcohol-aldehyde/ketone oxidoreductase from thermophilic anaerobic bacteria for analytical and commercial use” (Wisconsin Alumni Research Foundation, priority 1980, dated 1982)

Key:
[1] = molecular target: T1, NADP linked alcohol dehydrogenase (alcohol-aldehyde/ketone oxidoreductase) (Thermoanaerobacter brockii, UniProt P14941); assay: Specific activity of partially purified NADP linked alcohol dehydrogenase with alcohols and carbonyl compounds (absorbance at 334 nm); assay type: biochemical, Thermoanaerobium brockii; details: saturating substrate (0.2-0.5 M alcohol or ketone, 10 mM acetaldehyde); 0.5 mM NADP or 0.2 mM NADPH; 0.1 M Tris-Cl pH 7.8
T1 construct: of the T. brockii enzyme preparation with various alcohols and carbonyl compounds; made in house; host or cells: T. brockii itself (native host; partially purified enzyme)
T1 sequence (P14941 1-352): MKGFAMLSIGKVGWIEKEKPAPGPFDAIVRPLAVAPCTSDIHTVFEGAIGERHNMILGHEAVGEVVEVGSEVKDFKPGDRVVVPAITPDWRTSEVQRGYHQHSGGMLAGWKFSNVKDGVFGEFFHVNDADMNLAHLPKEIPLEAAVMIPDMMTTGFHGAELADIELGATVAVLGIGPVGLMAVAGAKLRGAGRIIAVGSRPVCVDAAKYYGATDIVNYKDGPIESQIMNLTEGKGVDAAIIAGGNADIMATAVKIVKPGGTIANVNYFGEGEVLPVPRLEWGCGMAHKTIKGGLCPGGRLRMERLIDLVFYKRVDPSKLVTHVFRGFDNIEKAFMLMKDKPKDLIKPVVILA

[2] = molecular target: T2, heat treated T. brockii extract (Thermoanaerobacter brockii, UniProt P14941); assay: Reduction of 2-pentanone by heat treated extract with NADPH regenerating system (gas chromatographic analysis); assay type: biochemical, Thermoanaerobium brockii; details: 3 g in 150 ml; 0.2 v/v isopropanol, 0.3 mM NADP; 40 hr. at 37° C.
T2 construct: made in house; host or cells: T. brockii itself (native host; heat treated crude extract)
T2 sequence (P14941 1-352): T1 sequence (P14941 1-352)
Description: As illustrated in the following reaction diagram, an NADPH regenerating system can be initiated with isopropanol as the electron donor for the reduction of 2-pentanone. [drawing 1] A 150 ml solution was prepared containing 50 mM Tris-HCl (pH 7.8), 0.2 v/v isopropanol, 2 mM dithiothreitol, 0.3 mM NADP and 3 g 2-pentanone. After the solution was degassed with N2, sufficient heat treated T. brockii extract was added to yield an activity of 1 U/min./ml. The solution was incubated in a stoppered vessel for 40 hr. at 37° C. Gas chromatographic analysis indicated a 90% conversion of 2-pentanone to the corresponding alcohol. The mixture was extracted with diethyl ether and then fractionally distilled. The fractions were analyzed by conventional gas chromatographic and NMR (nuclear magnetic resonance) methods. The pure 2-pentanol fraction yielded a dextrorotatory optical rotation which corresponded to that of a highly optically enriched compound. The result in optical purity was dependent on incubation temperature and initial rate of isopropanol to 2-pentanone. Decreasing the temperature from 37° C. to 25° C. and the 2-pentanone concentration from 3 grams/150 ml to 0.6 grams/150 ml, increases the d/l bar ratio from 6/l to 9/l for the resulting 2-pentanol.

Structure (SMILES): CCCC(C)=O [CH3 COCH2 CH2 CH3, 2-pentanone]
- Activity V/mg. at 60° C. [1]: 4.2 μ Mole/Min./Mg Protein
- Conversion to the corresponding alcohol [2]: 90%
